The text below walks through data of PubChem BioAssay (NCI).

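Each compound was tested at five concentrations against cells in 96-well plates for 48 hours. Definition used: TGI = concentration required for complete inhibition of growth.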 A value given as a limit tells only on which side of the number the result lay.

In the first assay the test system is UACC-62 melanoma. Put plainly: growth of human tumour cells (NCI), 48 h.
As for `COc1ccc(-c2c(C(C)=O)c(-c3ccccc3)n(C3OC(CO)C(O)C(O)C3O)c(=S)c2C#N)cc1` (stereo not drawn), the TGI was greater than 100 µM.
In turn, `O=C(NN1C(=O)C(Cl)C1c1ccc(Cl)cc1)c1c(Cl)c(Cl)c(Cl)c(Cl)c1-c1nc2ccccc2[nH]1` (stereo not drawn) returned a TGI of 33.9 µM.
Same read-out and setting: the same measure for `CC1(c2cccc(C3CC4(CCC3=O)OCCCCO4)c2)OCCO1` (stereo not drawn): greater than 100 µM.

The test system of the next assay is PC-3 prostate. Put plainly: growth of human tumour cells (NCI), 48 h.
With `CC(C)(C)C1=C(Br)C(C(C)(C)C)OP1(=O)O` (stereo not drawn), the TGI is greater than 100 µM.
On the same count and under the same terms, the same measure for `Cc1c(-c2ccccc2)cc(O)c2nc3ccccc3n12`: greater than 100 µM; for `N[C@@H]1CCN(c2c(F)cc3c(=O)c(C(=O)O)cn4c3c2Oc2c-4ccc3c2ccc2ccccc23)C1`: greater than 100 µM.
Same read-out and setting: the same measure for `Cc1ccc(C(=O)O)c(/C=C2\Cc3ccc(C)cc3C2=O)c1`: greater than 100 µM; for `COc1c(=O)cc2cc[nH]c3cc[nH]c1c23`: greater than 100 µM.
The same measure, in the same setting: the same measure for `CCCCC1(NN=C2CCCCC2)C(=O)N(c2ccccc2)N(c2ccccc2)C1=O`: greater than 100 µM; for `CNC1(c2cc3ccccc3s2)CCCCC1`: 55.5 µM; for `Cc1cc(C)c2c(=O)cc(-c3cccc4ccccc34)[nH]c2n1`: greater than 100 µM.
Take `N#Cc1c(-c2ccc(Cl)cc2)c2c(n(C3OC(CO)C(O)C(O)C3O)c1=S)CCCC2` (stereo not drawn): the TGI was greater than 100 µM.
Compound `O=C1/C(=C\c2ccc([N+](=O)[O-])cc2)N(S(=O)(=O)c2ccccc2)c2ncccc21` returned a TGI of 33.4 µM.
The compound `NC(=Nc1ccccc1Cl)c1ccccc1N` gave a TGI greater than 100 µM.
In turn, `CC12C=CC(C)(C3C(=O)C4C(C(=O)C31)C1(C)C=CC4(C)S1=O)S2=O` (stereo not drawn) had a TGI greater than 100 µM.
Compound `O=C(NN1C(=O)C(Cl)C1c1ccc(Cl)cc1)c1c(Cl)c(Cl)c(Cl)c(Cl)c1-c1nc2ccccc2[nH]1` (stereo not drawn) came in with a TGI greater than 100 µM.

The next assay has as its system HCT-116 colon. The assay is described as follows: growth of human tumour cells (NCI), 48 h.
Turning to `CC1(C)OCN(c2ccc(N3CCOCC3)cc2)Cn2c1nc1ccccc12`, the TGI is greater than 100 µM.
The compound `CC(C)(C)C1=C(Br)C(C(C)(C)C)OP1(=O)O` (stereo not drawn) came in with a TGI greater than 100 µM.
Still for that read-out and setting: the same measure for `CN(C)/C=C/C(=CC=[N+](C)C)/C=C/N(C)C`: greater than 100 µM.
Still for that read-out and setting: the same measure for `Cc1ccc(C(=O)O)c(/C=C2\Cc3ccc(C)cc3C2=O)c1`: greater than 100 µM; for `COc1c(=O)cc2cc[nH]c3cc[nH]c1c23`: greater than 100 µM.
Compound `CCCCC1(NN=C2CCCCC2)C(=O)N(c2ccccc2)N(c2ccccc2)C1=O` had a TGI greater than 100 µM.
The same measure, in the same setting: the same measure for `CNC1(c2cc3ccccc3s2)CCCCC1`: greater than 100 µM.
`N#C[S-].[La+3].c1cnc2c(c1)ccc1cccnc12.c1cnc2c(c1)ccc1cccnc12.c1cnc2c(c1)ccc1cccnc12` yielded a TGI of 10.2 µM.
On the same count and under the same terms, the same measure for `Cc1cc(C)c2c(=O)cc(-c3cccc4ccccc34)[nH]c2n1`: greater than 100 µM; for `N#Cc1c(-c2ccc(Cl)cc2)c2c(n(C3OC(CO)C(O)C(O)C3O)c1=S)CCCC2` (stereo not drawn): greater than 100 µM; for `O=S(Cc1ccccc1)c1nc2ccccc2nc1-c1cccs1` (stereo not drawn): 23.3 µM.
The same measure, in the same setting: as for `O=C1/C(=C\c2ccc([N+](=O)[O-])cc2)N(S(=O)(=O)c2ccccc2)c2ncccc21`, the figure is 43.1 µM; as for `CC(=O)SCCC(NC(=S)Nc1ccccc1)P(=O)(Oc1ccccc1)Oc1ccccc1` (stereo not drawn), greater than 100 µM.
Compound `NC(=Nc1ccccc1Cl)c1ccccc1N` displayed a TGI greater than 100 µM.
Still for that read-out and setting: the same measure for `CCN1C[C@]2(C)CC[C@H](O)C34C1C(C[C@@H]32)[C@@]1(O)CC[C@H]2C[C@@H]4[C@@H]1[C@H]2O`: greater than 100 µM; for `CCC(CC)NC1=C(NC(C)=O)C(=O)c2ccccc2C1=O`: greater than 50 µM.
The compound `COc1ccc(-c2c(C(C)=O)c(-c3ccccc3)n(C3OC(CO)C(O)C(O)C3O)c(=S)c2C#N)cc1` (stereo not drawn) displayed a TGI greater than 100 µM.
In turn, `O=C(NN1C(=O)C(Cl)C1c1ccc(Cl)cc1)c1c(Cl)c(Cl)c(Cl)c(Cl)c1-c1nc2ccccc2[nH]1` (stereo not drawn) gave a TGI of 44 µM.
The compound `CC1(c2cccc(C3CC4(CCC3=O)OCCCCO4)c2)OCCO1` (stereo not drawn) displayed a TGI greater than 100 µM.

For the next assay, the system named is KM12 colon. Put plainly: growth of human tumour cells (NCI), 48 h.
In turn, `CC1(C)OCN(c2ccc(N3CCOCC3)cc2)Cn2c1nc1ccccc12` yielded a TGI greater than 100 µM.
Still for that read-out and setting: as for `CC(C)(C)C1=C(Br)C(C(C)(C)C)OP1(=O)O` (stereo not drawn), the figure is greater than 100 µM; as for `Cc1c(-c2ccccc2)cc(O)c2nc3ccccc3n12`, greater than 100 µM.
The same measure, in the same setting: the same measure for `N[C@@H]1CCN(c2c(F)cc3c(=O)c(C(=O)O)cn4c3c2Oc2c-4ccc3c2ccc2ccccc23)C1`: greater than 100 µM; for `CN(C)/C=C/C(=CC=[N+](C)C)/C=C/N(C)C`: greater than 100 µM; for `Cc1ccc(C(=O)O)c(/C=C2\Cc3ccc(C)cc3C2=O)c1`: greater than 100 µM.
Same read-out and setting: the same measure for `COc1c(=O)cc2cc[nH]c3cc[nH]c1c23`: greater than 100 µM; for `CCCCC1(NN=C2CCCCC2)C(=O)N(c2ccccc2)N(c2ccccc2)C1=O`: greater than 100 µM; for `CNC1(c2cc3ccccc3s2)CCCCC1`: 43.1 µM.
Compound `N#C[S-].[La+3].c1cnc2c(c1)ccc1cccnc12.c1cnc2c(c1)ccc1cccnc12.c1cnc2c(c1)ccc1cccnc12` yielded a TGI of 22.6 µM.
Consider `Cc1cc(C)c2c(=O)cc(-c3cccc4ccccc34)[nH]c2n1`, for which the TGI turned out to be 15.4 µM.
Still for that read-out and setting: as for `N#Cc1c(-c2ccc(Cl)cc2)c2c(n(C3OC(CO)C(O)C(O)C3O)c1=S)CCCC2` (stereo not drawn), the figure is greater than 100 µM; as for `O=S(Cc1ccccc1)c1nc2ccccc2nc1-c1cccs1` (stereo not drawn), 34.5 µM.
Same read-out and setting: as for `O=C1/C(=C\c2ccc([N+](=O)[O-])cc2)N(S(=O)(=O)c2ccccc2)c2ncccc21`, the figure is 44.3 µM; as for `CC(=O)SCCC(NC(=S)Nc1ccccc1)P(=O)(Oc1ccccc1)Oc1ccccc1` (stereo not drawn), greater than 100 µM.
The compound `NC(=Nc1ccccc1Cl)c1ccccc1N` gave a TGI greater than 100 µM.
Still for that read-out and setting: the same measure for `CCN1C[C@]2(C)CC[C@H](O)C34C1C(C[C@@H]32)[C@@]1(O)CC[C@H]2C[C@@H]4[C@@H]1[C@H]2O`: greater than 100 µM; for `CC12C=CC(C)(C3C(=O)C4C(C(=O)C31)C1(C)C=CC4(C)S1=O)S2=O` (stereo not drawn): greater than 100 µM; for `CCC(CC)NC1=C(NC(C)=O)C(=O)c2ccccc2C1=O`: greater than 50 µM.
On the same count and under the same terms, as for `COc1ccc(-c2c(C(C)=O)c(-c3ccccc3)n(C3OC(CO)C(O)C(O)C3O)c(=S)c2C#N)cc1` (stereo not drawn), the figure is greater than 100 µM.
On the same count and under the same terms, as for `O=C(NN1C(=O)C(Cl)C1c1ccc(Cl)cc1)c1c(Cl)c(Cl)c(Cl)c(Cl)c1-c1nc2ccccc2[nH]1` (stereo not drawn), the figure is greater than 100 µM; as for `CC1(c2cccc(C3CC4(CCC3=O)OCCCCO4)c2)OCCO1` (stereo not drawn), greater than 100 µM.

A further assay relates to MDA-MB-231 breast. Put plainly: growth of human tumour cells (NCI), 48 h.
In turn, `Cc1c(-c2ccccc2)cc(O)c2nc3ccccc3n12` returned a TGI greater than 100 µM.
The same measure, in the same setting: as for `COc1c(=O)cc2cc[nH]c3cc[nH]c1c23`, the figure is greater than 100 µM; as for `CCCCC1(NN=C2CCCCC2)C(=O)N(c2ccccc2)N(c2ccccc2)C1=O`, greater than 100 µM; as for `CNC1(c2cc3ccccc3s2)CCCCC1`, 71.8 µM.
Same read-out and setting: the same measure for `Cc1cc(C)c2c(=O)cc(-c3cccc4ccccc34)[nH]c2n1`: 18.6 µM; for `N#Cc1c(-c2ccc(Cl)cc2)c2c(n(C3OC(CO)C(O)C(O)C3O)c1=S)CCCC2` (stereo not drawn): greater than 100 µM.
Compound `O=C1/C(=C\c2ccc([N+](=O)[O-])cc2)N(S(=O)(=O)c2ccccc2)c2ncccc21` returned a TGI of 38.4 µM.
Compound `CC(=O)SCCC(NC(=S)Nc1ccccc1)P(=O)(Oc1ccccc1)Oc1ccccc1` (stereo not drawn) displayed a TGI greater than 100 µM.
Same read-out and setting: as for `NC(=Nc1ccccc1Cl)c1ccccc1N`, the figure is greater than 100 µM.
The compound `CC12C=CC(C)(C3C(=O)C4C(C(=O)C31)C1(C)C=CC4(C)S1=O)S2=O` (stereo not drawn) gave a TGI greater than 100 µM.
As to `COc1ccc(-c2c(C(C)=O)c(-c3ccccc3)n(C3OC(CO)C(O)C(O)C3O)c(=S)c2C#N)cc1` (stereo not drawn), the TGI is greater than 100 µM.
